Here are results for seven compounds from patent US5521315A, “Olefin substituted long chain compounds” (priority 1993, dated 1996).

The inhibition is the change of the read-out against control, counted positive when it falls.

Values joined by “and” are separate entries in the source; they are usually repeats but may differ in a detail not shown here. Identical values can stand only once.

For one data set, the system named is Saccharomyces cervisiae. Put plainly: Yeast growth inhibition assay. It counts as cell-based. Conditions: FIG. 14. How it is done:
Some of the inventive compounds are effective for inhibiting yeast cell growth. This effect can be assayed by measuring growth of the yeast strain Saccharomyces cervisiae. A control yeast stain Saccharomyces cervisiae (BIO 101, Inc.) is grown overnight in YEPD broth at 30° C. A one to hundred dilution of the yeast culture is made with fresh YEPD broth. 100 μl Aliquots of the diluted culture are distributed into 96-wells titer plates. 100 μl Aliquots of drug is diluted in YEPD broth were then added to the wells. The titer plates are incubated at room temperature with continuous shaking. The cell density of the individual cultures are determined using a microplate reader with a A630 filter. The A630 of the individual yeast cultures are compared to control samples without adding drug. This assay is predictive of direct antimicrobial, particularly yeast and fungal, activity of the drugs studied.
This example illustrates the effects of CT2501R (a reference compound), CT2536R, CT2536S, CT1596R, and CT1596S of yeast growth (Saccromyces cerevasie) in the presence or absence of drug. These assays measure anti-yeast and anti-fungal activity of the drugs tested. […] Therefore either the R enantiomer, the S enantiomer or a racemic mixture of CT2536 are potential topical or systemic antimicrobial drugs.

The next data set has as its system mast cell degranulation. Put plainly: Serotonin release assay (inhibition of mast cell degranulation). It counts as cell-based. Also on record: INCORP / TOTAL: unit not given here. The following applies: 50 μM; for RELEASE-SPONT: average corrected for spontaneous release; for AVERAGE % RELEASE: average of duplicates; for % RELEASE / INCORP / RELEASE / RELEASE X2 / TOTAL: duplicate wells; for inhibition at 50 µM: Mast cell. In a few lines:
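Cultured mast cells loaded with 3H-serotonin and sensitized with anti-DNP IgE for 18 h at 37 °C, then triggered with 40 ng/ml DNP-BSA for 45 min with compound in PIPES isotonic buffer pH 7.1.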

In data set [1] the test system is PBMC (peripheral blood mononuclear cells). Put plainly: Two-way mixed lymphocyte reaction (MLR), proliferation of PBMC to allogeneic stimulation. The following applies: FIGS. 3 and 4. It counts as cell-based, human. An excerpt:
Various in vitro assays can be used to measure effects of the inventive compounds to module immune activity and have antitumor activity using a variety of cellular types. For example, a mixed lymphocyte reaction (MLR) provides a valuable screening tool to determine biological activity of each inventive compound. In the MLR, PBMCs (peripheral blood mononuclear cells) are obtained by drawing whole blood from healthy volunteers in a heparinized container and diluted with an equal volume of hanks balanced salt solution (HBSS). This mixture is layered on a […] density gradient, such as a Ficoll-Hypaque® gradient (specific gravity 1.08), and centrifuged at 1000×g for 25 minutes at room temperature or cooler. PBMC are obtained from a band at a plasma-Ficoll interface, separated and washed at least twice in a saline solution, such as HBSS. Contaminating red cells are lysed, such as by ACK lysis for 10 min at 37° C., and the PBMCs are washed twice in HBSS. The pellet of purified PBMCs is resuspended in complete medium, such as RPMI 1640 plus 20% human inactivated serum. Proliferative response of PBMC to allogeneic stimulation is determined in a two-way MLR performed in a 96-well microliter plate. Briefly, approximately 10^5 test purified PBMC cells in […] complete medium are co-cultured with approximately 10^5 autologous (control culture) or allogeneic (stimulated culture) PBMC cells, wherein the allogeneic cells are from HLA disparate individuals. Varying doses of compounds (drug) are added at the time of addition of cells to the microtiter plate. The cultures are incubated for 6 days at 37° C. in a 5% CO2 atmosphere. At the conclusion of the incubation tritiated thymidine is added (for example, […] of 40 to 60 Ci/mmole) and proliferation determined by liquid scintillation counting.
This example illustrates a mixed lymphocyte reaction assay of inventive compounds by showing the IC50 value of each compound in this assay and a dose response of several compounds to illustrate an IC50 determination.

The subject of another data set is human stromal cells. Briefly: PDGF-stimulated proliferation of human stromal cells. It counts as cell-based. Conditions: 50 ng/ml PDGF-BB; drug one hour prior; FIGS. 15 and 16; read-out: IC50, stromal cell proliferation. How it is done: (§1) This assay is an in vitro model for restenosis and treatment of atherosclerosis and coronary artery disease. Stromal cells were starved in serum-free media for one day and then stimulated with 50 ng/ml PDGF-BB. The drugs were added at the indicated concentrations one hour prior to PDGF stimulation. Tritiated thymidine was added for one day at the time of PDGF stimulation and the cells were harvested and counted by liquid scintillation counting 24 hrs later.
Another assay for measuring activity of the inventive compounds involves determining PDGF (platelet derived growth factor) proliferative response using human-derived stromal cells. […] Two to three days later, the stromal cells are starved in serum-free media. Twenty four hours later, the cells are treated with a stimulating agent, such as PDGF-AA, PDGF-BB or basic FGF (fibroblast growth factor) with or without IL-1α or TNF, and tritiated thymidine. Cell proliferation is determined by liquid scintillation counting.
as §1

For another data set, the system named is murine thymocyte. Briefly: Murine thymocyte stimulated by ConA and IL-2 (T cell immune suppression). The class given is cell-based. The following applies: FIGS. 8 and 9. How it is done:
A thymocyte costimulator assay is conducted to evaluate the inventive compounds to inhibit activation and proliferation of thymocytes caused by stimulation with Con A and interleukin-1 (IL-1), or […]. Thymuses are obtained from mice (e.g., female Balb/C mice) and the thymuses are removed and dissociated into culture media (e.g., RPMI 1640 without serum supplementation). The dissociated thymus tissue and cell suspension is transferred to centrifuge tubes and allowed to settle, washed with HBSS and resuspended in serum-supplemented culture media (e.g., RPMI 1640 with 10% fetal calf serum). Any contaminating red cells are lysed, and viable cells are resuspended and counted. Thymocytes are plated (e.g., 96-well plates at a density of 2×10^5 cells/well) and a stimulating agent, such as Con A, IL-1 (e.g., IL-1α) or IL-2 is added to the well. The cells are incubated for 4 days at 37° C. On the fourth day, the cells are pulsed with tritiated thymidine and cell proliferation determined. Inventive compounds are added at the time of stimulating agent addition.
A third assay measures an ability of an inventive compound to inhibit IL-2-induced proliferation of murine thymocytes. Thymus glands are obtained from 4-6 week old mice and plated as a single cell suspension into flat bottomed wells in RPMI 1640 medium supplemented with 10% fetal calf serum. The inventive compounds are added to appropriate wells and the cells are incubated for 1-2 hrs. Concanavilin A (ConA, 0.25 mg/ml) and […] (20 ng/ml) are added and the plates are incubated for 4 days. Cell proliferation is determined as above.
FIG. 8 compares T cell immune suppression data of thirteen inventive compounds by comparing their IC50 values in a murine thymocyte stimulated by ConA and IL-2 in vitro model.

Data set [2] relates to CMV promoter activity in transformed (adenovirus) cells. Briefly: CMV promoter assay (gene transcription and translation; cytotoxicity in transformed cells). It counts as cell-based. A digest of the protocol:
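Reporter assay in adenovirus-transformed cells, reading CMV promoter-driven gene transcription and translation; activity reflects cytotoxic inhibition of cellular protein synthesis machinery.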

Data set [3] deals with transformed cells (Ras 3T3) and normal 3T3 cells. Briefly: Cytotoxicity in transformed cells (Ras 3T3) versus normal 3T3 cells. It counts as cell-based. The following applies: LD50 comparison; FIG. 17. How it is done:
Each inventive compound is investigated for cytotoxicity to determine appropriate doses for biological activity assays and to prevent cytotoxic reactions in in vitro assays when characterizing activity. Cells (e.g., NIH-3T3, Ras transformed 3T3 cells, malignant melanoma LD2 cells, etc.) are added to microtiter plates and drug is added about two days after plating. Cell viability is determined using a fluorescent viability stain (e.g., 2',7'-bis-(2-carboroxyethyl)-5-(and -6)-carboxyfluorescein acetoxymethyl ester, BCECF excitation 488 nm and emission 525 nm) 24, 48 or 72 hours after addition of the drug.
This example illustrates a comparison of cytotoxicity determinations for CT1534 and CT1539 in transformed cells (Ras 3T3) and in normal 3T3 cells to determine the in vitro LD50 value in both cell types and to look for differential cytotoxicity effects between the cell types.

The subject of data set [4] is second messenger pathway enzymes in P388 cells (murine monocyte/macrophage line). Briefly: Changes in lipid mass (DAG, PA) in P388 cells after signal stimulation. The class given is cell-based. The following applies: 30 second time point, FIGS. 20-22. The procedure:
FIGS. 20-22 illustrate the effect of one inventive compound (CT1534) on the substates and products of the present second messenger pathway. Various concentrations of CT1534 were incubated with P388 cells (a murine monocyte/macrophage line) and changes in lipid mass determined at 0 time, 30 seconds and 60 seconds after signal stimulation. FIGS. 20-22 show the 30 second time point for two DAG peaks and a PA peak.
This example illustrates the effect of one inventive compound (CT1534) on the substates and products of the present second messenger pathway. Various concentrations of CT1534 were incubated with P388 cells (a murine monocyte/macrophage line) and changes in lipid mass determined at 0 time, 30 seconds and 60 seconds after signal stimulation. FIGS. 20-22 show the 30 second time point for two DAG peaks and a PA peak.

`CC(C)=CCCC(C)CCn1c(=O)c2c(ncn2C)n(C)c1=O` (racemic) [CT1596]: the “inhibition of yeast growth” value in the data set with Saccharomyces cervisiae is “enantiomeric selectivity”.
Regarding `C=CCCCCCCCCCn1c(=O)c2c(ncn2COC(=O)C(C)(C)C)n(C)c1=O` [CT1403, 1-(10-undecenyl)-3-methyl-7-methylpivaloylxanthine], in the data set on mast cell degranulation (Table 4), the “% INHIBITION” value came to 84.23%; the RELEASE-SPONT was 1.26%; the “AVERAGE % RELEASE” value is reported as 17.82%; the “% RELEASE” value is 17.37% and 18.27%. For the same compound, in the data set with mast cell degranulation (Table 4), the INCORP is 23246 and 25691; the RELEASE is 2443 and 2872; the “RELEASE X2” value is 4886 and 5744; the TOTAL was 28132 and 31435. The “% INHIBITION” value with mast cell degranulation (Table 5) was determined as 84.23%. Besides, the IC50 in data set [1] came out at 10 µM. The IC50 in the data set with human stromal cells is < 10 µM.
Consider `C=CCCCCCCCn1c(=O)c2c(ncn2COC(=O)C(C)(C)C)n(C)c1=O` [CT1411, 1-(8-nonenyl)-3-methyl-7-methylpivaloylxanthine], for which, in the data set with mast cell degranulation (Table 4), the “% INHIBITION” value is recorded as 87.89%; the RELEASE-SPONT came to 0.97%; the “AVERAGE % RELEASE” value was found to be 17.53%; the “% RELEASE” value is 16.79% and 18.27%. In the data set with mast cell degranulation (Table 4), the INCORP was 24627 and 24663; the RELEASE was 2484 and 2756; the “RELEASE X2” value is 4968 and 5512; the TOTAL is 29595 and 30175. In the data set with mast cell degranulation (Table 5), the “% INHIBITION” value is given as 87.89%. In addition, the “T cell immune suppressing activity” value with murine thymocyte is recorded as “potent immune suppressing activity”. The IC50 with human stromal cells was < 10 µM.
For `C=CCCCCCn1c(=O)c2c(ncn2C)n(C)c1=O` [CT1534, 1-(6-heptenyl)-3,7-dimethylxanthine], the IC50 in data set [2] was > 500 µM. Moreover, in the data set with mast cell degranulation (Table 4), the RELEASE-SPONT is 5.47%, the “AVERAGE % RELEASE” value came out at 22.02% and the inhibition at 50 µM was determined as 31.9%. For the same compound, the “differential cytotoxicity, transformed vs normal cells” value in data set [3] was “much more cytotoxic for the transformed cell than the normal cell”. The “plateau concentration for inhibition of second messenger signaling” value in data set [4] (DAG and PA peaks) is “around 10 μM”. Further, the “inhibition of second messenger signaling enzymes” value in data set [4] was “inhibits the enzymes involved in second messenger signaling to an inflammatory stimulus in a dose-response fashion”.
`C=CCCCCn1c(=O)c2c(ncn2C)n(C)c1=O` [CT1539, 1-(5-hexenyl)-3,7-dimethylxanthine]: the IC50 in data set [2] is > 500 µM. In addition, in the data set with mast cell degranulation (Table 4), the RELEASE-SPONT is listed as 5.15%, the “AVERAGE % RELEASE” value came to 21.71% and the inhibition at 50 µM worked out at 35.8%. In addition, the “differential cytotoxicity, transformed vs normal cells” value in data set [3] was “equally cytotoxic for both cell types”.
`CC(C)=CCC[C@@H](C)CCCn1c(=O)c2c(ncn2C)n(C)c1=O` [CT2536R, 1-(4-(R)-Methyl-8-methylnon-7-enyl)-3,7-dimethylxanthine] gave an IC50 in data set [2] of 30 µM. In addition, in the data set on mast cell degranulation (Table 4), the RELEASE-SPONT is given as -0.55%, the “AVERAGE % RELEASE” value amounted to 16.00% and the inhibition at 50 µM is 107%. In the data set on Saccharomyces cervisiae, the “inhibition of yeast growth” value is “strongly inhibited yeast growth”.
The compound `CC(C)=CCC[C@H](C)CCCn1c(=O)c2c(ncn2C)n(C)c1=O` [CT2536S, 1-(4-(S)-Methyl-8-methylnon-7-enyl)-3,7-dimethylxanthine] displayed an IC50 in data set [2] of 30 µM. In addition, in the data set on mast cell degranulation (Table 4), the RELEASE-SPONT came to 0.21%, the “AVERAGE % RELEASE” value came to 16.76% and the inhibition at 50 µM is 97.4%. In the data set on Saccharomyces cervisiae, the “inhibition of yeast growth” value was “strongly inhibited yeast growth”.
